Experimental data published in ChEMBL document CHEMBL2021840 (Eur J Med Chem, 2012).

target: T1, Estrogen receptor beta (Homo sapiens, UniProt Q92731); assay: Displacement of [3H]-17beta-estradiol from ERbeta; conditions: not given
T1 sequence (Q92731 whole entry): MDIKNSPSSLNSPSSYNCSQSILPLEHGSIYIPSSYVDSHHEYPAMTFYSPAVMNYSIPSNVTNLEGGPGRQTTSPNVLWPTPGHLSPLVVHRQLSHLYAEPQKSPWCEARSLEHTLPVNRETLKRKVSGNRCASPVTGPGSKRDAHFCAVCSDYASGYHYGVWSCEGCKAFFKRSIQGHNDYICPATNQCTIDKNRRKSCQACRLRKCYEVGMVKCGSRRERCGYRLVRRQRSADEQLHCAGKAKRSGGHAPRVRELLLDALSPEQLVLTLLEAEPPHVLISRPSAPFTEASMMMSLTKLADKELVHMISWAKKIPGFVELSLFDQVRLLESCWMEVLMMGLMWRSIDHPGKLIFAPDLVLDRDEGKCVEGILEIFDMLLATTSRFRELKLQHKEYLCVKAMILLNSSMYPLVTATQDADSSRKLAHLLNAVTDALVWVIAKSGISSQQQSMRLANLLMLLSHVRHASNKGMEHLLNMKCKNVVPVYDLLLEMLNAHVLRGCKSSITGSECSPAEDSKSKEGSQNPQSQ

IC50 [nM]	SMILES
9.07	O=C(c1ccc(N2CCN(C(=O)c3ccc(Cl)cc3)CC2)cc1)c1c(-c2ccc(O)cc2)sc2cc(O)ccc12

tested on: MCF7; assay: Antiproliferative activity against human MCF7 cells; format: functional, cell-based; conditions: Homo sapiens, MCF7; read-out: IC50; call rule not given here

IC50 [nM]	SMILES
35	O=C(c1ccc(OCCN2CCCCC2)cc1)c1c(-c2ccc(O)cc2)sc2ccccc12
3	O=C(c1ccc(OCCN2CCCCC2)cc1)c1c(-c2ccc(O)cc2)sc2cc(O)c(F)cc12
2	Oc1ccc2c(Cc3ccc(OCCN4CCCCC4)cc3)c([C@H]3CC[C@H](O)CC3)sc2c1
100	COc1ccc2c(C(=O)c3ccc(OCCN4CCCCC4)cc3)c([C@H]3CC[C@@H](O)CC3)sc2c1
400	CCc1sc2cc(O)ccc2c1Cc1ccc(OCCN2CCCCC2)cc1
10	Oc1ccc2c(Cc3ccc(OCCN4CCCCC4)cc3)c(C3CCCCC3)sc2c1
100	CC(C)c1sc2cc(O)ccc2c1Cc1ccc(OCCN2CCCCC2)cc1
600	Cc1sc2cc(O)ccc2c1Cc1ccc(OCCN2CCCCC2)cc1
0.5	O=C(c1ccc(OCCN2CCCCC2)cc1)c1c2ccc(O)cc2sc1[C@H]1CC[C@H](O)CC1
250	COc1ccc2c(C(=O)c3ccc(OCCN4CCCCC4)cc3)c(-c3ccc(O)cc3)sc2c1
2.3	O=C(c1ccc(OCCN2CCCCC2)cc1)c1c(-c2ccc(O)c(Cl)c2)sc2cc(O)ccc12
500	Cc1cc2c(C(=O)c3ccc(OCCN4CCCCC4)cc3)c(-c3ccc(O)cc3)sc2c(C)c1O
0.3	O=C(c1ccc(OCCN2CCCCC2)cc1)c1c(-c2ccc(O)c(F)c2)sc2cc(O)ccc12
1	Cc1cc(-c2sc3cc(O)ccc3c2C(=O)c2ccc(OCCN3CCCCC3)cc2)ccc1O
1000	COc1ccc(-c2sc3cc(O)ccc3c2C(=O)c2ccc(OCCN3CCCCC3)cc2)cc1
100	Cc1cc(-c2sc3cc(O)ccc3c2C(=O)c2ccc(OCCN3CCCCC3)cc2)cc(C)c1O
400	O=C(c1ccc(OCCN2CCCCC2)cc1)c1c(-c2ccc(O)cc2)sc2cc(O)c(O)cc12
10	Oc1ccc2c(Cc3ccc(OCCN4CCCCC4)cc3)c(C3CCCC3)sc2c1
300	COc1ccc(-c2sc3cc(OC)ccc3c2C(=O)c2ccc(OCCN3CCCCC3)cc2)cc1
300	O=C(c1ccc(OCCN2CCCCC2)cc1)c1c(-c2ccccc2)sc2ccccc12

same assay, conditions: mcf7

SMILES	IC50
C[C@]12CC[C@@H]3c4ccc(O)cc4CC[C@H]3[C@@H]1CC[C@@H]2O [ESTRADIOL]	Not Active

target: T1, Estrogen receptor beta; assay: Relative binding affinity to human ERbeta; conditions: not given

relative binding affinity (RBA)	SMILES
30	O=C(c1ccc(OCCN2CCCCC2)cc1)c1c(-c2ccccc2CCCF)sc2cc(O)ccc12
27	O=C(c1ccc(OCCN2CCCCC2)cc1)c1c(-c2ccccc2CCF)sc2cc(O)ccc12
24	O=C(c1ccc(OCCN2CCCCC2)cc1)c1c(-c2ccc(O)cc2CCCF)sc2cc(O)ccc12

SMILES	relative binding affinity (RBA)
C[C@]12CC[C@@H]3c4ccc(O)cc4CC[C@H]3[C@@H]1CC[C@@H]2O [ESTRADIOL]	3.5

target: T2, Estrogen receptor (Homo sapiens, UniProt P03372); assay: Displacement of [3H]-17beta-estradiol from ERalpha; conditions: not given
T2 sequence (P03372 whole entry): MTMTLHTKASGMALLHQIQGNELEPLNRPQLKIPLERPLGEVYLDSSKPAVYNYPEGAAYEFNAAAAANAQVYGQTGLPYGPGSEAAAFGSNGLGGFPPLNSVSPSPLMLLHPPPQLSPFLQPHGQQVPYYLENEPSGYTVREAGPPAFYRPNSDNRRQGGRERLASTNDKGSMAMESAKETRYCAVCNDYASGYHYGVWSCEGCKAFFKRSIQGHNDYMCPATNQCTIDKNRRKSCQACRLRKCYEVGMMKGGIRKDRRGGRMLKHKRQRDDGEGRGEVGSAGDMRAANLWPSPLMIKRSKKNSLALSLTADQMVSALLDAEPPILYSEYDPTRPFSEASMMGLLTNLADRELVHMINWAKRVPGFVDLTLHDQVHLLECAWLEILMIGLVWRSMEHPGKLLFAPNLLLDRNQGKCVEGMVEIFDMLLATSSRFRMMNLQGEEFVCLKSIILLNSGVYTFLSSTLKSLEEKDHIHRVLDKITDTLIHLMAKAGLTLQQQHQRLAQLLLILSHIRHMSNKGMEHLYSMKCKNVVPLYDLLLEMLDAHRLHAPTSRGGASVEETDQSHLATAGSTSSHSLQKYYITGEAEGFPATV

IC50 [nM]	SMILES
0.22	O=C(c1ccc(N2CCN(C(=O)c3ccc(Cl)cc3)CC2)cc1)c1c(-c2ccc(O)cc2)sc2cc(O)ccc12

tested on: not listed separately; assay: Selectivity ratio of IC50 for ERbeta to IC50 for ERalpha; conditions: not given

Ratio IC50	SMILES
121	CC(C)N1CCN(c2ccc(C(=O)c3c(-c4ccc(O)cc4)sc4cc(O)ccc34)cc2)CC1
41	O=C(c1ccc(N2CCN(C(=O)c3ccc(Cl)cc3)CC2)cc1)c1c(-c2ccc(O)cc2)sc2cc(O)ccc12
46.2	Cc1cccc(C(=O)N2CCN(c3ccc(C(=O)c4c(-c5ccc(O)cc5)sc5cc(O)ccc45)cc3)CC2)c1

tested on: MCF7; assay: Antiproliferative activity against human MCF7 cells after 7 days; format: functional, cell-based; conditions: MCF7, 168 h

SMILES	IC50 [nM]
C[C@H]1CCN(CCOc2ccc(C(=O)c3c(-c4ccc(O)cc4)sc4cc(O)ccc34)cc2)C1	1
C[C@H](COc1ccc(C(=O)c2c(-c3ccc(O)cc3)sc3cc(O)ccc23)cc1)N1CCCC1	0.2
